Measured values: US20230416248A1, “COMPOUNDS AND USES THEREOF” (Foghorn Therapeutics Inc., priority 2020, published 2023)
pIC50: −log10 of the molar value.

Legend:
BRM = target: T1, BRM (Homo sapiens, UniProt P51531); assay: ATPase catalytic activity of BRM, ADP-Glo in vitro biochemical assay; conditions: for pIC50: ATPase catalytic activity, ADP-Glo, 30 nM BRM, 400 μM ATP; for Ratio*: ratio of BRG1 IC50 to BRM IC50
T1 construct: made in house; host or cells: High Five insect cells
Method in brief: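 Recombinant BRM (30 nM) hydrolysed 400 μM ATP with 20 nM salmon sperm DNA in pH 8 Tris buffer containing 20 mM MgCl2, 50 mM NaCl, 0.1% Tween-20 and 1 mM DTT, 1 h at room temperature. ADP formed was quantified by ADP-Glo luminescence.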

BRG-1 = target: T2, BRG-1 (Homo sapiens, UniProt P51532); assay: ATPase catalytic activity of BRG-1, ADP-Glo in vitro biochemical assay; conditions: ATPase catalytic activity, ADP-Glo; 30 nM BRG-1, 400 μM ATP; read-out: BRG1 IC50
T2 construct: made in house; host or cells: High Five insect cells
T2 sequence (P51532 whole entry): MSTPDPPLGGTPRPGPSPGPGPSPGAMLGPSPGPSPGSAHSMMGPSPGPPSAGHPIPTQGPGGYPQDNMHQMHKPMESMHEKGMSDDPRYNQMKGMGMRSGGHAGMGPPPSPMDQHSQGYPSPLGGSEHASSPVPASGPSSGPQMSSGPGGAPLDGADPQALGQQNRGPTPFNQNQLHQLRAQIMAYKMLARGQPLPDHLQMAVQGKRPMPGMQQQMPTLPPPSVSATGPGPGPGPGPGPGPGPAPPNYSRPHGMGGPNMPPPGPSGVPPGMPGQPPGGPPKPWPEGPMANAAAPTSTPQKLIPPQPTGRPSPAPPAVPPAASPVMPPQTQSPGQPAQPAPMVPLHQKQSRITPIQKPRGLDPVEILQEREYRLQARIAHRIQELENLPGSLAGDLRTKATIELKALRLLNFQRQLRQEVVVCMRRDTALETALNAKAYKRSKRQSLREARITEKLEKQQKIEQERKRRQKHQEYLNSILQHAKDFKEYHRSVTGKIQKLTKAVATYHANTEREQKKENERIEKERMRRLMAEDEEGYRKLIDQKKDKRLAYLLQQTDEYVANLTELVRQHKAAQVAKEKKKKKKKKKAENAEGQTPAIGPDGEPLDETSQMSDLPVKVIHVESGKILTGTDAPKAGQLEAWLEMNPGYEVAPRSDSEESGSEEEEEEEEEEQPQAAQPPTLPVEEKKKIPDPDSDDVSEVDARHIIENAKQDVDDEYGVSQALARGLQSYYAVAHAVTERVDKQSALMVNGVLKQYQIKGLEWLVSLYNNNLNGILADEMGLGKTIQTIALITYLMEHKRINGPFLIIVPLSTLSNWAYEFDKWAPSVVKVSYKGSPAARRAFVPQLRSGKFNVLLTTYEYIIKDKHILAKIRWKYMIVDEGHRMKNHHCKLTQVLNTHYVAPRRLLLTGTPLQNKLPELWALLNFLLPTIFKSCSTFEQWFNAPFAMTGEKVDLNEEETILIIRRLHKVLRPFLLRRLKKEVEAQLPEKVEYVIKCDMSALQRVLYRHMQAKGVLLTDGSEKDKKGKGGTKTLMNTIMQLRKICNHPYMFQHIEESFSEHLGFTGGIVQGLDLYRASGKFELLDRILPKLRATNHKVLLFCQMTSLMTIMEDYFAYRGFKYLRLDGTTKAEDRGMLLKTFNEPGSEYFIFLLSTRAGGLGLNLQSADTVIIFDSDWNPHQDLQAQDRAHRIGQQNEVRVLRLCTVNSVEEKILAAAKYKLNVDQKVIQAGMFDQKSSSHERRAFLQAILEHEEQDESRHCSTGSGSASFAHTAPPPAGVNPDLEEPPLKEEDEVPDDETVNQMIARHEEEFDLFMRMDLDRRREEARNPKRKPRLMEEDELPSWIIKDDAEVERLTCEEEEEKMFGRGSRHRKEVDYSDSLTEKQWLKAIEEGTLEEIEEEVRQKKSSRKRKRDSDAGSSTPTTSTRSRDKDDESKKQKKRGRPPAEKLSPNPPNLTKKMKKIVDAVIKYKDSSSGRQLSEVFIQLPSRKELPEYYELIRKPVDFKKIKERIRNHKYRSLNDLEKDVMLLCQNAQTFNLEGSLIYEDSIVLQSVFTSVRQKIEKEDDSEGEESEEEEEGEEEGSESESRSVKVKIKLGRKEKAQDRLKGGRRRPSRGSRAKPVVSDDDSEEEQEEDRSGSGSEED
Method in brief: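 Signal reflects ADP produced by the enzyme, quantified as luminescence after unused ATP is cleared and ADP is reconverted to ATP for the luciferase reaction; both steps run at room temperature, 40 and 60 min respectively.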

T1 sequence (P51531 whole entry): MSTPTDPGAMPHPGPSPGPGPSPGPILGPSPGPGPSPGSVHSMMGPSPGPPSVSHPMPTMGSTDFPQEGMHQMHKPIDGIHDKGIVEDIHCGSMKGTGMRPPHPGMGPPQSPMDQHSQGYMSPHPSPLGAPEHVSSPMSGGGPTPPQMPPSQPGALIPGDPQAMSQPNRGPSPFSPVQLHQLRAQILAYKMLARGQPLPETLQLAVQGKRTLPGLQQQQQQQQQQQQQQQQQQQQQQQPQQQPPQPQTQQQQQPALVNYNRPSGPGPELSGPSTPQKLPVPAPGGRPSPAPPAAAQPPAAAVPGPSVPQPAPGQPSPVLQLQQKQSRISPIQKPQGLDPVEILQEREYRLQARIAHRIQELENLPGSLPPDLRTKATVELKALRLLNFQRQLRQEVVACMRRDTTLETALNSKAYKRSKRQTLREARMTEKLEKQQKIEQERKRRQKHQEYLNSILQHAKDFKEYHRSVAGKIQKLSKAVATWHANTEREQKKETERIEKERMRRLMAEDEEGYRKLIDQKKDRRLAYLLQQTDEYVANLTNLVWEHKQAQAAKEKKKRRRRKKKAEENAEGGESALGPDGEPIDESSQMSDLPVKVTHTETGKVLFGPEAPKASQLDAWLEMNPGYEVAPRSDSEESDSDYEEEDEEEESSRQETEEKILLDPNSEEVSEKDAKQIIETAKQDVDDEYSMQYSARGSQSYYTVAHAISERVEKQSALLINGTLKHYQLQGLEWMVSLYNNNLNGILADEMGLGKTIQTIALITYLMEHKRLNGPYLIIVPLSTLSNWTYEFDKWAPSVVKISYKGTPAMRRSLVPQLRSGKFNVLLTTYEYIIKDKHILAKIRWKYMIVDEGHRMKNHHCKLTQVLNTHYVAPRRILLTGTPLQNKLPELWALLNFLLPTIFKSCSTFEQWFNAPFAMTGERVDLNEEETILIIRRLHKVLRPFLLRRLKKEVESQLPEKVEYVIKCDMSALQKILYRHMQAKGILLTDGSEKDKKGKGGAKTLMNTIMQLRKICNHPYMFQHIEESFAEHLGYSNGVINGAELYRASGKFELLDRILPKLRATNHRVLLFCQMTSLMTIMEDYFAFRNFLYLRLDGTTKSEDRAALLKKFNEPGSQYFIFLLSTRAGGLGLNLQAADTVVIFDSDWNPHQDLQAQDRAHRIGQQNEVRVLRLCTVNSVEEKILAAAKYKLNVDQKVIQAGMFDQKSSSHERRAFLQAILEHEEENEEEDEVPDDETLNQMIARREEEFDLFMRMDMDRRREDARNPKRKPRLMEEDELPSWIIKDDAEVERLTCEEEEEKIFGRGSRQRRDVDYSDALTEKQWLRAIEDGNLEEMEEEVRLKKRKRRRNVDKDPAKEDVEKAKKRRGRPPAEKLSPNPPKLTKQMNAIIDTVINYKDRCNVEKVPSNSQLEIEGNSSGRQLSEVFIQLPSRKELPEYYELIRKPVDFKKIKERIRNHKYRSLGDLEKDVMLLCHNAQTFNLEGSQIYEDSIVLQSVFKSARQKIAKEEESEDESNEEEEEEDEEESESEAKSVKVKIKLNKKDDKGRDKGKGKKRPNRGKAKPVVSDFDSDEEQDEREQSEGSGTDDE

Structure (SMILES) | pIC50 (BRM) | Ratio* (BRM) | pIC50 (BRG-1)
O=C(NCc1cc2nc(N3CCOc4cccnc43)ccc2cn1)c1ccc2c(c1)S(=O)(=O)CCOC2 [Compound 367] | 8.08 | 17.87 | 6.82
COC[C@H]1C[C@@H]1c1cccc(-c2ccc3cnc(CNC(=O)c4ccc5c(c4)S(=O)(=O)CCOC5)cc3n2)n1 [Compound 369] | 7.44 | 11.52 | 6.38
CCN(CC1COC1)c1cccc(-c2ccc3cnc(CNC(=O)c4ccc5c(c4)S(=O)(=O)CCOC5)cc3n2)n1 [Compound 370] | 7.84 | 10.43 | 6.82
CCN(c1cccc(-c2ccc3cnc(CNC(=O)c4ccc5c(c4)S(=O)(=O)CCOC5)cc3n2)n1)[C@@H](C)COC [Compound 372] | 7.96 | 10.78 | 6.93
COCCN(CC(C)(F)F)c1cccc(-c2ccc3cnc(CNC(=O)c4ccc5c(c4)S(=O)(=O)CCOC5)cc3n2)n1 [Compound 373] | 7.89 | 10.75 | 6.86
COCCN(c1cccc(-c2ccc3cnc(CNC(=O)c4ccc5c(c4)S(=O)(=O)CCOC5)cc3n2)n1)C1CCC1 [Compound 374] | 8.06 | 8.04 | 7.15
O=C(NCc1cc2nc(-c3cccc(OCC4CCC4)n3)ccc2cn1)c1ccc2c(c1)S(=O)(=O)CCOC2 [Compound 375] | 7.37 | 14.74 | 6.20
O=C(NCc1cc2nc(-c3cccc(C4CCOC4)n3)ccc2cn1)c1ccc2c(c1)S(=O)(=O)CCOC2 (stereo not drawn) [Compound 376] | 7.18 | 8.06 | 6.27
O=C(NCc1cc2nc(-c3cccc([C@]45CCOCC4C5)n3)ccc2cn1)c1ccc2c(c1)S(=O)(=O)CCOC2 (stereo partly drawn) [Compound 377] | 7.91 | 12.27 | 6.82
O=C(NCc1cc2nc(-c3cccc([C@@]45CCOCC4C5)n3)ccc2cn1)c1ccc2c(c1)S(=O)(=O)CCOC2 (stereo partly drawn) [Compound 378] | 7.93 | 13.88 | 6.79
Cn1ncc2c1CCCN2c1ccc2cnc(CNC(=O)c3ccc4c(c3)S(=O)(=O)CCOC4)cc2n1 [Compound 380] | 7.01 | 5.20 | 6.29
O=C(NCc1cc2nc(-c3cccc(OCC4CC4)n3)ccc2cn1)c1ccc2c(c1)S(=O)(=O)CCOC2 [Compound 381] | 7.71 | 12.43 | 6.62
CN(C[C@@H]1CCO1)c1cccc(-c2ccc3cnc(CNC(=O)c4ccc5c(c4)S(=O)(=O)CCOC5)cc3n2)n1 [Compound 382] | 8.04 | 13.22 | 6.92
CN(C[C@H]1CCO1)c1cccc(-c2ccc3cnc(CNC(=O)c4ccc5c(c4)S(=O)(=O)CCOC5)cc3n2)n1 [Compound 383] | 8.18 | 10.88 | 7.14
C[C@H]1COCc2ccc(C(=O)NCc3cc4nc(-c5cccc(OC(F)F)n5)ccc4cn3)cc2S1(=O)=O [Compound 384] | 7.84 | 28.41 | 6.39
COc1cc(Cl)ccc1-c1ccc2cnc(CNC(=O)c3ccc4c(c3)S(=O)(=O)[C@@H](C)COC4)cc2n1 [Compound 386] | 8.04 | 15.24 | 6.85
COc1cc(C2CC2)ccc1-c1ccc2cnc(CNC(=O)c3ccc4c(c3)S(=O)(=O)CCOC4)cc2n1 [Compound 387] | 7.17 | 10.65 | 6.14
C[C@H]1COCc2ccc(C(=O)NCc3cc4nc(-c5cccc(OC(F)(F)F)n5)ccc4cn3)cc2S1(=O)=O [Compound 388] | 7.74 | 31.86 | 6.23
C[C@@H]1CN(c2cccc(-c3ccc4cnc(CNC(=O)c5cc(Cl)c6c(c5)S(=O)(=O)CCOC6)cc4n3)n2)C[C@H](C)O1 [Compound 389] | 7.86 | 38.63 | 6.28
O=C(NCc1cc2nc(-c3cccc(OCC4CC(F)(F)C4)n3)ccc2cn1)c1ccc2c(c1)S(=O)(=O)CCOC2 [Compound 390] | 7.22 | 17.24 | 5.98
O=C(NCc1cc2nc(-c3cccc(OCC4CC4(F)F)n3)ccc2cn1)c1ccc2c(c1)S(=O)(=O)CCOC2 (stereo not drawn) [Compound 391] | 7.54 | 15.87 | 6.34
C[C@H]1COCc2ccc(C(=O)NCc3cc4nc(-c5cccc([C@H]6CC6(F)F)n5)ccc4cn3)cc2S1(=O)=O [Compound 392] | 7.38 | 26.15 | 5.96
